Results published in ChEMBL document CHEMBL4138146, “A Schmidt rearrangement-mediated synthesis of novel tetrahydro-benzo[1,4]diazepin-5-ones as potential anticancer and antiprotozoal agents” (Eur J Med Chem, 2017).

Legend:
Type in all cases: functional
[1] = system: RPMI-8226; test: Growth inhibition of human RPMI8226 cells incubated for 48 hrs by sulforhodamine B assay; conditions: RPMI-8226, 48 h; for CC50: read-out: LC50 (the source's name)
[2] = system: HCC 2998; test: Growth inhibition of human HCC2998 cells incubated for 48 hrs by sulforhodamine B assay; conditions: HCC 2998, 48 h
[3] = system: SF-539; test: Growth inhibition of human SF539 cells incubated for 48 hrs by sulforhodamine B assay; conditions: SF-539, 48 h
[4] = system: NCI-H460; test: Growth inhibition of human NCI-H460 cells incubated for 48 hrs by sulforhodamine B assay; conditions: NCI-H460, 48 h
[5] = system: OVCAR-4; test: Growth inhibition of human OVCAR4 cells incubated for 48 hrs by sulforhodamine B assay; conditions: OVCAR-4, 48 h
[6] = system: OVCAR-3; test: Growth inhibition of human OVCAR3 cells incubated for 48 hrs by sulforhodamine B assay; conditions: OVCAR-3, 48 h
[7] = system: SK-MEL-5; test: Growth inhibition of human SK-MEL-5 cells incubated for 48 hrs by sulforhodamine B assay; conditions: SK-MEL-5, 48 h; for CC50: read-out: LC50 (the source's name)
[8] = system: SK-MEL-2; test: Growth inhibition of human SK-MEL-2 cells incubated for 48 hrs by sulforhodamine B assay; conditions: SK-MEL-2, 48 h; for CC50: read-out: LC50 (the source's name)
[9] = system: EKVX; test: Growth inhibition of human EKVX cells incubated for 48 hrs by sulforhodamine B assay
[10] = system: OVCAR-8; test: Growth inhibition of human OVCAR8 cells incubated for 48 hrs by sulforhodamine B assay; conditions: OVCAR-8, 48 h
[11] = system: BT-549; test: Growth inhibition of human BT549 cells incubated for 48 hrs by sulforhodamine B assay; conditions: BT-549, 48 h
[12] = system: HCT-116; test: Growth inhibition of human HCT116 cells incubated for 48 hrs by sulforhodamine B assay; conditions: HCT-116, 48 h
[13] = system: NCI-H226; test: Growth inhibition of human NCI-H226 cells incubated for 48 hrs by sulforhodamine B assay; conditions: NCI-H226, 48 h; for CC50: read-out: LC50 (the source's name)
[14] = system: MDA-MB-468; test: Growth inhibition of human MDA-MB-468 cells incubated for 48 hrs by sulforhodamine B assay; conditions: MDA-MB-468, 48 h
[15] = system: HOP-92; test: Growth inhibition of human HOP92 cells incubated for 48 hrs by sulforhodamine B assay; conditions: HOP-92, 48 h
[16] = system: SK-MEL-28; test: Growth inhibition of human SK-MEL-28 cells incubated for 48 hrs by sulforhodamine B assay; conditions: SK-MEL-28, 48 h; for CC50: read-out: LC50 (the source's name)
[17] = system: UACC-257; test: Growth inhibition of human UACC257 cells incubated for 48 hrs by sulforhodamine B assay; conditions: UACC-257, 48 h; for CC50: read-out: LC50 (the source's name)
[18] = system: MDA-MB-435; test: Growth inhibition of human MDA-MB-435 cells incubated for 48 hrs by sulforhodamine B assay; conditions: MDA-MB-435, 48 h
[19] = system: PC-3; test: Growth inhibition of human PC3 cells incubated for 48 hrs by sulforhodamine B assay; conditions: PC-3, 48 h
[20] = system: Hs-578T; test: Growth inhibition of human Hs 578T cells incubated for 48 hrs by sulforhodamine B assay
[21] = system: Malme-3M; test: Growth inhibition of human MALME-3M cells incubated for 48 hrs by sulforhodamine B assay
[22] = system: NCI/ADR-RES; test: Growth inhibition of human NCI/ADR-RES cells incubated for 48 hrs by sulforhodamine B assay; conditions: for CC50: read-out: LC50 (the source's name)
[23] = system: IGROV-1; test: Growth inhibition of human IGROV1 cells incubated for 48 hrs by sulforhodamine B assay; conditions: IGROV-1, 48 h; for CC50: read-out: LC50 (the source's name)
[24] = system: A549; test: Growth inhibition of human A549/ATCC cells incubated for 48 hrs by sulforhodamine B assay; conditions: A549, 48 h
[25] = system: T47D; test: Growth inhibition of human T47D cells incubated for 48 hrs by sulforhodamine B assay
[26] = system: SW-620; test: Growth inhibition of human SW620 cells incubated for 48 hrs by sulforhodamine B assay; conditions: SW-620, 48 h
[27] = system: SK-OV-3; test: Growth inhibition of human SKOV3 cells incubated for 48 hrs by sulforhodamine B assay; conditions: SK-OV-3, 48 h; for CC50: read-out: LC50 (the source's name)
[28] = system: DU-145; test: Growth inhibition of human DU145 cells incubated for 48 hrs by sulforhodamine B assay; conditions: DU-145, 48 h; for CC50: read-out: LC50 (the source's name)
[29] = system: M14; test: Growth inhibition of human M14 cells incubated for 48 hrs by sulforhodamine B assay; conditions: M14, 48 h
[30] = system: RXF 393; test: Growth inhibition of human RXF393 cells incubated for 48 hrs by sulforhodamine B assay; conditions: RXF 393, 48 h
[31] = system: NCI-H23; test: Growth inhibition of human NCI-H23 cells incubated for 48 hrs by sulforhodamine B assay; conditions: NCI-H23, 48 h
[32] = system: U-251; test: Growth inhibition of human U251 cells incubated for 48 hrs by sulforhodamine B assay; conditions: U-251, 48 h
[33] = system: SNB-19; test: Growth inhibition of human SNB19 cells incubated for 48 hrs by sulforhodamine B assay; conditions: SNB-19, 48 h
[34] = system: MCF7; test: Growth inhibition of human MCF7 cells incubated for 48 hrs by sulforhodamine B assay; conditions: MCF7, 48 h
[35] = system: NCI-H522; test: Growth inhibition of human NCI-H522 cells incubated for 48 hrs by sulforhodamine B assay; conditions: NCI-H522, 48 h; for CC50: read-out: LC50 (the source's name)
[36] = system: LOX IMVI; test: Growth inhibition of human LOXIMVI cells incubated for 48 hrs by sulforhodamine B assay
[37] = system: HT-29; test: Growth inhibition of human HT-29 cells incubated for 48 hrs by sulforhodamine B assay; conditions: HT-29, 48 h
[38] = read-out: LC50 (the source's name)

Compound: COc1cccc2c1C(=O)c1c(O)c3c(c(O)c1C2=O)C[C@@](O)(C(=O)CO)C[C@@H]3O[C@H]1C[C@H](N)[C@H](O)[C@H](C)O1 [DOXORUBICIN]
- GI50 [1]: 0.08 µM
- CC50 [1]: 100 µM
- GI50 [2]: 0.26 µM
- GI50 [3]: 0.12 µM
- GI50 [4]: 0.02 µM
- GI50 [5]: 0.37 µM
- GI50 [6]: 0.39 µM
- GI50 [7]: 0.14 µM
- CC50 [7]: 8.15 µM
- GI50 [8]: 0.21 µM
- CC50 [8]: 15.9 µM
- GI50 [9]: 0.41 µM
- GI50 [10]: 0.1 µM
- GI50 [11]: 0.23 µM
- GI50 [12]: 0.08 µM
- GI50 [13]: 0.05 µM
- CC50 [13]: 6.4 µM
- GI50 [14]: 0.05 µM
- GI50 [15]: 0.1 µM
- GI50 [16]: 0.08 µM
- CC50 [16]: 0.49 µM
- GI50 [17]: 0.12 µM
- CC50 [17]: 0.74 µM
- GI50 [18]: 0.25 µM
- GI50 [19]: 0.32 µM
- GI50 [20]: 0.33 µM
- GI50 [21]: 0.12 µM
- CC50 [22]: 100 µM
- GI50 [23]: 0.17 µM
- CC50 [23]: 100 µM
- GI50 [24]: 0.06 µM
- GI50 [25]: 0.06 µM
- GI50 [26]: 0.09 µM
- GI50 [27]: 0.22 µM
- CC50 [27]: 100 µM
- GI50 [28]: 0.11 µM
- CC50 [28]: 100 µM
- GI50 [29]: 0.18 µM
- GI50 [30]: 0.1 µM
- GI50 [31]: 0.15 µM
- GI50 [32]: 0.04 µM
- GI50 [33]: 0.04 µM
- GI50 [34]: 0.04 µM
- GI50 [35]: 0.03 µM
- CC50 [35]: 2.8 µM
- GI50 [36]: 0.07 µM
- GI50 [37]: 0.12 µM

Compound: CCCCOc1nc2ccccc2cc1C1CNC(=O)c2ccccc2N1 (stereo not drawn)
- GI50 [1]: 2.86 µM
- TGI [1]: 25.1 µM
- CC50 [1]: > 100 µM
- GI50 [2]: 3.58 µM
- TGI [2]: 26.7 µM
- CC50 [2, 38]: > 100 µM
- GI50 [3]: 2.29 µM
- TGI [3]: 7.47 µM
- CC50 [3, 38]: 44.9 µM
- GI50 [4]: 3.11 µM
- LC50 (concentration killing 50% of cells) [4]: 51.1 µM
- TGI [4]: 11.6 µM
- GI50 [5]: 5.38 µM
- TGI [5]: 31.8 µM
- CC50 [5, 38]: > 100 µM
- GI50 [6]: 1.31 µM
- TGI [6]: 3.53 µM
- CC50 [6, 38]: 9.4 µM
- GI50 [7]: 2.34 µM
- TGI [7]: 20 µM
- CC50 [7]: > 100 µM
- GI50 [8]: 4.79 µM
- TGI [8]: 48.5 µM
- CC50 [8]: > 100 µM
- GI50 [9]: 4.76 µM
- TGI [9]: 82.8 µM
- CC50 [9, 38]: > 100 µM
- GI50 [10]: 3.45 µM
- TGI [10]: 16.1 µM
- CC50 [10, 38]: > 100 µM
- GI50 [11]: 5.22 µM
- TGI [11]: 38.8 µM
- CC50 [11, 38]: > 100 µM
- GI50 [12]: 1.84 µM
- TGI [12]: 6.26 µM
- CC50 [12, 38]: 44.7 µM
- GI50 [13]: 3.13 µM
- TGI [13]: 14.9 µM
- CC50 [13]: > 100 µM
- GI50 [14]: 1.61 µM
- TGI [14]: 7.34 µM
- CC50 [14, 38]: > 100 µM
- GI50 [15]: 1.92 µM
- TGI [15]: 22.6 µM
- CC50 [15, 38]: > 100 µM
- GI50 [16]: 5.89 µM
- TGI [16]: 27.3 µM
- CC50 [16]: 86.1 µM
- GI50 [17]: 8.16 µM
- TGI [17]: > 100 µM
- CC50 [17]: > 100 µM
- GI50 [18]: 0.34 µM
- TGI [18]: 1.33 µM
- CC50 [18, 38]: 7.6 µM
- GI50 [19]: 3.06 µM
- TGI [19]: 13.4 µM
- CC50 [19, 38]: 66.9 µM
- GI50 [20]: 3.21 µM
- TGI [20]: 33.8 µM
- CC50 [20, 38]: > 100 µM
- GI50 [21]: 3.58 µM
- TGI [21]: 27 µM
- CC50 [21, 38]: 92 µM
- GI50 [22]: 1.74 µM
- TGI [22]: 6.7 µM
- CC50 [22]: 97 µM
- GI50 [23]: 4.49 µM
- TGI [23]: 23.9 µM
- CC50 [23]: 98.5 µM
- GI50 [24]: 3.64 µM
- LC50 [24]: 53 µM
- TGI [24]: 14.5 µM
- GI50 [25]: 5.32 µM
- TGI [25]: > 100 µM
- CC50 [25, 38]: > 100 µM
- GI50 [26]: 2.19 µM
- TGI [26]: 27.1 µM
- CC50 [26, 38]: > 100 µM
- GI50 [27]: 2.38 µM
- TGI [27]: 9.96 µM
- CC50 [27]: > 100 µM
- GI50 [28]: 3.16 µM
- TGI [28]: 12.9 µM
- CC50 [28]: > 100 µM
- GI50 [29]: 1.54 µM
- TGI [29]: 11.8 µM
- CC50 [29, 38]: 92.2 µM
- GI50 [30]: 2.5 µM
- TGI [30]: 12.1 µM
- CC50 [30, 38]: 75.4 µM
- GI50 [31]: 5.16 µM
- TGI [31]: 36.8 µM
- CC50 [31, 38]: > 100 µM
- GI50 [32]: 3.03 µM
- TGI [32]: 13.7 µM
- CC50 [32, 38]: 50.1 µM
- GI50 [33]: 6.13 µM
- TGI [33]: 75.3 µM
- CC50 [33, 38]: > 100 µM
- GI50 [34]: 1.73 µM
- TGI [34]: 16.1 µM
- CC50 [34, 38]: > 100 µM
- GI50 [35]: 2.39 µM
- TGI [35]: 25.8 µM
- CC50 [35]: > 100 µM
- GI50 [36]: 2.9 µM
- TGI [36]: 14.4 µM
- CC50 [36, 38]: 47.3 µM
- GI50 [37]: 3.21 µM
- TGI [37]: 11.1 µM
- CC50 [37, 38]: 67.7 µM
